Experimental data taken from the supplement of paper PMC10290057.
Where a name gives a salt, the structure may show the parent alone.

Each molecule was assayed on HCT116 (assay: efficacy (fitted maximal change in viability relative to DMSO control); higher = less cytotoxic (negative = loss of viability)). Settings: 48 h.
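Also: Luminescence-based viability readout, five doses per compound, normalized against on-plate DMSO and empty-well controls, followed by dose-response curve fitting for every drug.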

Compound | efficacy [%]
CC1(C)[C@@H](O[C@H]2O[C@H](C(=O)O)[C@@H](O)[C@H](O)[C@H]2O[C@@H]2O[C@H](C(=O)O)[C@@H](O)[C@H](O)[C@H]2O)CC[C@]2(C)[C@H]3C(=O)C=C4[C@@H]5C[C@@](C)(C(=O)O)CC[C@]5(C)CC[C@@]4(C)[C@]3(C)CC[C@@H]12 [Ammonium Glycyrrhizinate] | 7.39
CCN(C1CCOCC1)C2=C(C)C(=CC(=C2)C3=CC=C(CN4CCOCC4)C=C3)C(=O)NC\C5=C(C)\C=C(C)/NC5=O [Tazemetostat] | -59
COc1nccc(-c2c(-c3ccc(F)cc3)ncn2C2CCNCC2)n1 | -39.7
CNC(=O)c1ccc(-c2cnc3ncc(Cc4ccc5ncccc5c4)n3n2)cc1F [Capmatinib] | -28.8
OC1=CC=C(C=C1)\C2=C\C(=O)C3=C(O2)C=C(O)C=C3O [Apigenin] | -82
COc1cc([C@H]2Oc3cc([C@H]4Oc5cc(O)cc(O)c5C(=O)[C@@H]4O)ccc3O[C@@H]2CO)ccc1O [Silybin] | -13.3
COC1=CC=C(C=C1O)C/2=C/C(=O)C3=C(O2)C=C(O[C@@H]4O[C@H](CO[C@@H]5O[C@@H](C)[C@H](O)[C@@H](O)[C@H]5O)[C@@H](O)[C@H](O)[C@H]4O)C=C3O [Diosmin] | -15.2
CC[C@H]1OC(=O)[C@H](C)C(=O)[C@H](C)[C@@H](O[C@H]2O[C@H](C)C[C@H](N(C)C)[C@H]2O)[C@](C)(OC)C[C@@H](C)C(=O)[C@H](C)[C@H]2N(CCCCn3cnc(-c4cccnc4)c3)C(=O)O[C@]12C [Telithromycin] | -11.9
CN(NC(=O)CC(=O)NN(C)C(=S)c1ccccc1)C(=S)c1ccccc1 [Elesclomol (STA-4783)] | -39.3
CN(C)CCNC(=O)COc1c2cccc1Cc1cccc(c1OCC(=O)NCCN(C)C)Cc1cccc(c1OCC(=O)NCCN(C)C)Cc1cccc(c1OCC(=O)NCCN(C)C)C2 [OTX-008] | -46.7
NC(=O)c1ccc(-c2nc(-c3ccc4c(c3)OCCO4)c(-c3ccccn3)[nH]2)cc1 [D-4476] | -84.9
CC(=O)N[C@H]1CSSC[C@@H](C(N)=O)NC(=O)[C@H](C(C)C)NC(=O)[C@H](C)NC(=O)[C@H](Cc2cnc[nH]2)NC1=O [Exherin] | -8
COc1ccccc1OCC(O)CN1CCN(CC(=O)Nc2c(C)cccc2C)CC1 (stereo not drawn) [Ranolazine] | -11.9
CCCC\1=C(/CNC(=O)C2=CC(=CC3=C2C=N[N]3C(C)C)C4=CC=C(N=C4)N5CCN(CC5)C(C)C)C(=O)NC(=C1)\C [UNC-1999] | -25.5
CC(=O)N1CCC[C@H]1C(=O)N[C@@H](Cc1c[nH]cn1)C(=O)N[C@@H](CO)C(=O)N[C@@H](CS)C(=O)N[C@@H](CC(N)=O)C(N)=O [ATN-161] | -6.15
CC(COc1ccccc1)N(CCCl)Cc1ccccc1 (stereo not drawn) [Phenoxybenzamine hydrochloride] | -19.8
COc1cc2c(cc1OC)CN(CCc1ccc(NC(=O)c3cc(OC)c(OC)cc3NC(=O)c3cnc4ccccc4c3)cc1)CC2 [Tariquidar] | -11.3
C[C@]12CC(=O)[C@H]3[C@@H](CC\C4=C\C(=O)\C=C/[C@]34C)[C@@H]1CC[C@]2(O)C(=O)CO [Prednisone] | 8.5
c1cc(-c2sc(-c3ccncc3)c(-c3ccncc3)c2-c2ccncc2)ccn1 | -13.8
COC1=CC=C(C=C1)C2CC(=N/N2C3=CC=C(C=C3)[S+](N)([O-])=O)\C4=CC=CC=C4 (stereo not drawn) [ML-141] | -60
C[C@H](NC(=O)Cc1cc(F)cc(F)c1)C(=O)N[C@H](C(=O)OC(C)(C)C)c1ccccc1 [GSI-IX] | 26
C[C@]12CC[C@@H]3c4ccc(O)cc4CC[C@H]3[C@@H]1C[C@@H](O)[C@@H]2O [Estriol] | -52.3
C=C1C[C@@]2(O)O[C@@]3(C[C@H]2C(C)C)[C@@H](C)CC[C@@H]13 [Curcumol] | -14.1

Compound | efficacy [%]
Cc1cc(SCc2sc(-c3ccc(C(F)(F)F)c(F)c3)nc2C)ccc1OCC(=O)O [GW-0742] | -21
CN1C(=O)/C=C(/NCCN(CCO)CCCC2=CC=C(C=C2)[N+]([O-])=O)N(C)C1=O [Nifekalant] | -10
CC[C@@H]1C(=O)N(C)c2cnc(Nc3ccc(C(=O)NC4CCN(C)CC4)cc3OC)nc2N1C1CCCC1 [BI-2536] | -71.6
O=C(O)CCCc1c[nH]c2ccccc12 [3-indolebutyric acid] | 15
COc1ccc(-n2c(C)c([N+](=O)[O-])c3ccc(O)cc32)cc1 [ID-8] | -14.4
O=C(O)C[C@H]1CC[C@H](c2ccc(-c3ccc(Nc4ccc(C(F)(F)F)nc4)cn3)cc2)CC1 [Pradigastat] | -15.9
C[C@]12Cc3cn[nH]c3C[C@@H]1CC[C@@H]1[C@@H]2CC[C@@]2(C)[C@H]1CC[C@]2(C)O [Stanozolol] | -19.3
CCCOc1ccc(C(=O)OCCN(CC)CC)cc1N [Proparacaine] | -20.7
C[C@@H]1[C@H](O)[C@@H](C)/C=C/C=C/C=C/C=C/C=C/C=C/C=C/[C@H](O[C@@H]2O[C@H](C)[C@@H](O)[C@H](N)[C@@H]2O)C[C@@H]2O[C@](O)(C[C@@H](O)C[C@@H](O)[C@H](O)CC[C@@H](O)C[C@@H](O)CC(=O)O[C@H]1C)C[C@H](O)[C@H]2C(=O)O [Amphotericin B] | -15.3
COCCOc1ccc(N2CCN(CCn3ncc4c3nc(N)n3nc(-c5ccco5)nc43)CC2)cc1 [Preladenant] | -16
CC[S+](=O)([O-])c1ccc2oc(-c3ccc4ccccc4c3)nc2c1 [Ezutromid] | -24.2
CC(C)(N)C(=O)N[C@H](COCc1ccccc1)C(=O)N1CCC2(CC1)CN([S+](C)(=O)[O-])c1ccccc12 [Ibutamoren mesilate] | -50.7
C[C@H]1COC2=C3N1\C=C(C(O)=O)/C(=O)C3=CC(=C2N4CCN(C)CC4)F [Levofloxacin] | -12.3
CCOC(=O)[C@H](CCc1ccccc1)N[C@@H](C)C(=O)N1[C@H](C(=O)O)C[C@@H]2CCC[C@@H]21 [Ramipril] | -13.7
CN(C(=O)c1ccc(F)cc1C(F)(F)F)C1CCN(c2nnc(-c3ccnn3C)c3ccccc23)CC1 [Taladegib] | -25.6
O=C(NC1CCOCC1)c1ccc(-c2cc(-c3c[nH]nc3-c3ccccn3)ccn2)cc1 | -24
CC(C(=O)O)c1ccc2c(c1)CC(=O)c1ccccc1S2 (stereo not drawn) [Zaltoprofen] | 8.02
O=C(O)/C(S)=C/c1ccc(I)cc1 | -6.45
COc1ccc2[nH]c([S+]([O-])Cc3ncc(C)c(OC)c3C)nc2n1 (stereo not drawn) [Tenatoprazole] | -10.8
CCOCC(O)COc1ccc(NC(=O)CC[S+](C)C)cc1 (stereo not drawn) [Suplatast tosylate] | -20.9
COC/1=C/[C@@H]2[C@@H]3CC4=C(C(=C(OC)C=C4)O)[C@]2(CCN3C)CC1=O [Sinomenine] | -20.7
COc1ccc(C(=O)CC(=O)c2ccc(C(C)(C)C)cc2)cc1 [Avobenzone] | -43.1
COC1=CC=CC=C1C2=CC=CC(=C2)C/3=C(O)/C4=CC(=C(Cl)C=C4NC3=O)C#N [FASN MRK] | -12.8

Compound | efficacy [%]
CN1C(=O)\C(=C/C2=C1N=C(NC3CCOCC3)N=C2)OC4=C(F)C=C(F)C=C4 [R-1487] | -14.4
N[C@@H](Cc1cc(I)c(Oc2cc(I)c(O)c(I)c2)c(I)c1)C(=O)O [L-Thyroxine] | -8.54
CC(C)(C)c1nc(-c2cccc(N[S+](=O)([O-])c3c(F)cccc3F)c2F)c(-c2ccnc(N)n2)s1 [Dabrafenib] | -29.3
CCN(C(=O)c1ccccc1OC)c1cc2c(cc1N1CCNC[C@H]1C)n(C)c(=O)n2C [GSK9311] | -8.64
FC(F)(F)c1ccc(CNc2ccc(Cc3c[nH]c4ncc(Cl)cc34)cn2)cn1 [Pexidartinib] | -21.9
C/C=C/C(=O)N(CC)c1ccccc1C [Crotamiton] | 6.9
CC(C)Oc1ccc2c(=O)c(-c3ccccc3)coc2c1 [Ipriflavone] | -27.7
O=C(O)c1ccc(O)c2ncccc12 [IOX-1] | -36.7
O=C(O)C(=O)c1cn(Cc2ccccc2)c2ccc(-c3ccc(OC(F)(F)F)cc3)cc12 [Tiplasinin] | -22.4
OC1=CC2=C(C(=C1)O)C(=O)\C(=C(/O2)C3=CC(=C(O)C(=C3)O)O)O [Myricetin] | -26.3
CNC(=O)c1c(C)oc2cc(Oc3ncnc4cc(OC)c(OC)cc34)ccc12 [Fruquintinib] | -11.4
C[N]1N=CC=C1C/2=C(\C)N(C(=O)C(=C2)/C(=O)NCC3=NC=C(C=C3)[S+](C)([O-])=O)C4=CC=CC(=C4)C(F)(F)F [AZD9668] | 12.5
CC(C)C[C@H](CO)Nc1nc(S[C@@H](C)c2ccccc2)nc2nc(N)sc12 [AZD-8797] | -86.1
O=C(O)c1cccc(-c2noc(-c3ccccc3F)n2)c1 [PTC-124] | -22.5
COC1=CC=C(C=C1)C/2=C(OC3O[C@@H](C)[C@H](O)[C@@H](O)[C@H]3O)/C(=O)C4=C(O2)C(=C(OC5O[C@H](CO)[C@@H](O)[C@H](O)[C@H]5O)C=C4O)CC=C(C)C (stereo partly drawn) [Icariin] | -27.5
COC1=CC=C(C=C1)C(=O)C2CCN(CC2)CC(=O)N(CC3CC3)C\C4=N\C5=C(\COCC5)C(=O)N4 [TNKS-656] | -13.6
COc1cc(SC)ccc1C(=O)N1CCC(Cc2ccccc2)CC1 [JX-401] | -43.4
CC(C(C)N1CC(=O)NC(=O)C1)N1CC(=O)NC(=O)C1 (stereo not drawn) [ICRF-193] | -32.2
O=C(CCCc1ccc2cccnc2n1)NCc1cc(-c2ccc(F)c(C(F)(F)F)c2)no1 [PRP003-062] | -32.2
COc1ccc2[nH]c([S+]([O-])Cc3ncc(C)c(OC)c3C)nc2c1 (stereo not drawn) [Omeprazole] | -17.5
C[C@@H](c1ncncc1F)[C@](O)(Cn1cncn1)c1ccc(F)cc1F [Voriconazole] | -12.1
CN1CCN(C)C(=O)C1C2=CC=C(N/C3=N/C(=C\N(C)C3=O)C4=C(C)C(=CC=C4)NC(=O)C5=CC6=C(CCCC6)S5)C=C2 (racemic) [GDC-0834 racemate] | -21.2
